# Measurements: patent US7696167B2, “Cyclic peptide compound” (Astellas Pharma Inc., priority 2004, dated 2010)
# Test system: HCV replicon
# Assay type: cell-based, hepatitis C virus
# Settings: HCV replicon cells, two days with compound, replicon RNA corrected by GAPDH; read-out: HCV replicon inhibitory activity: EC50
# Procedure: The inhibitory activity against the replication of HCV replicon was evaluated by determining the amount of replicon RNA, purified from cell lysate with a conventional column method, using real-time RT-PCR based on Taq-Man chemistry. The assay was carried out with the modified method reported by Lohmann et al., Science 285: 100 (1999) and Takeuchi et al., Gastroenterology 116: 636-642 (1999). The details thereof are described in the following.
# 7.5×10^3 HCV replicon cells in 0.1 ml of D-MEM medium containing 5% fetal bovine serum and 300 μg/ml of G418 (Kishine et al., B.B.R.C. 293: 993-999 (2002)) were seeded in each well of a 96-well microtiter plate (Corning Inc.). After the plate was incubated at 37° C. for 16 hours in 5% CO2, the medium was replaced with the above-mentioned medium in which the test compound was dissolved. […]
# RT-PCR was carried out by using the ABI PRISM 7900HT sequence detection system (Applied Biosystems Inc.), and the gene copy number of the HCV replicon RNA in each cell was determined. […]
# As a further control for RNA recovery in each assay well, the copy number of cellular Glyceraldehyde-3-phosphate dehydrogenase (GAPDH) mRNA was quantified by real-time RT-PCR with specific primer set and probe (all of these were produced by Takara Shuzo Co., Ltd.) as described above (part3) […]
smiles,measurement,value
C/C=C/C[C@@H](C)[C@@H](O)[C@H]1C(=O)N[C@@H]([C@@H](C)O)C(=O)N(C)CC(=O)N(C)[C@@H](CC(C)C)C(=O)N[C@@H](CC(C)C)C(=O)N(C)[C@@H](CC(C)C)C(=O)N[C@@H](C)C(=O)N[C@H](C)C(=O)N(C)[C@@H](C[C@H](C)CO)C(=O)N[C@@H](CC(C)C)C(=O)N(C)[C@@H](C(C)C)C(=O)N1C [(2)],EC50,< 3000 nM
